Assay results from publication PMC10629583, “Specific inhibition of an anticancer target, polo-like kinase 1, by allosterically dismantling its mechanism of substrate recognition” (Proceedings of the National Academy of Sciences of the …, 2023).
Entries after “also recorded” stand apart in the source; their conditions may differ. Where two headings read alike, the source gives them in different places. Where no end group is shown, it is not given here. [ ]: non-standard residue; d: D form. pT = C[C@@H](OP(=O)(O)O)[C@H](N)C(=O)O

Experiments:
full-length Plk1 [1] = molecular target: T1, full-length Plk1 (Homo sapiens, UniProt P53350); experiment: ELISA-based PBD1-binding inhibition assay; settings: total lysates from HEK293A cells expressing full-length Plk1; biotinylated PBIP1 p-T78 peptide; read-out: Anti-Plk1 (full length) ELISA (IC50) Mean ± SEM
T1 construct: expressed in transfected cells; host or cells: HEK293A cells infected with adenovirus; total lysate

[2] = Solubility in PBS (imaging of insoluble particles, dynamic light scattering); assay type: physicochemical; settings: PBS buffer (pH 7.4)
Method: All samples were analyzed after adjusting the concentration to 100 μM solution in the PBS buffer (pH 7.4) containing 1% DMSO. The measurements were carried out at 25 °C using the DynaPro NanoStar system (Wyatt Technology). The intensity of the scattered light was measured as a function of time, and the resulting data were used to calculate the size and distribution of the particles in the sample. Collected data were analyzed using the DYNAMICS software to calculate the mean size and polydispersity index of the particles in the sample. At least three repeat measurements were performed to ensure that the results were accurate and reproducible.
Fig. S1. Solubility and activity of Allopole and its related compounds. (A) Images showing insoluble
particles of 200 µM of the indicated compounds dissolved in the PBS buffer. The aggregates of […]

L363 cells [3] = experiment: MTS cell viability assay, L363 cells; assay type: cell-based; settings: 48 h treatment, read-out: Cell efficacy (GI50) Mean ± SD
Plk1 PBD (PBD1) = molecular target: T2, Plk1 PBD (PBD1) (Homo sapiens, UniProt P53350); experiment: FP-based inhibition assay, PBD1; assay type: binding; settings: FP, bacterially expressed purified PBD, FITC-ligand 15 nM, PBD at EC85; read-out: PBD1 IC50 ± SD
T2 construct: constructs expressing PBD1 (residues 345–603) WT (pKM7650); His; TEV site (N); made in house; host or cells: bacteria (E. coli)
Method: (§1) FP assays were carried out essentially as described previously ([35], [36]). […] All the samples were analyzed approximately 30 min after reaction in a 384-well format using the SpectraMax Paradigm multimode microplate detection platform (Molecular Devices). Data were analyzed after carrying out at least three independent experiments using GraphPad Prism software version 8.

full-length Plk1 [4] = molecular target: T1, full-length Plk1; settings: total lysates from HEK293A cells expressing full-length Plk1; ref Park, J.E., et al. (1); read-out: Anti-Plk1 (full length) ELISA (IC50) Mean ± SEM; cited from earlier work
Plk2 PBD (PBD2) = molecular target: T3, Plk2 PBD (PBD2) (Homo sapiens, UniProt Q9NYY3); experiment: FP-based inhibition assay, PBD2; assay type: binding; settings: bacterially expressed purified PBD, FITC-ligand 15 nM, PBD at EC85
T3 construct: Purification of PBD2-His (355–685) (pKM3358) and its S652F mutant (pKM7980); His (C); made in house; host or cells: bacteria (E. coli)
T3 sequence (Q9NYY3 355-685): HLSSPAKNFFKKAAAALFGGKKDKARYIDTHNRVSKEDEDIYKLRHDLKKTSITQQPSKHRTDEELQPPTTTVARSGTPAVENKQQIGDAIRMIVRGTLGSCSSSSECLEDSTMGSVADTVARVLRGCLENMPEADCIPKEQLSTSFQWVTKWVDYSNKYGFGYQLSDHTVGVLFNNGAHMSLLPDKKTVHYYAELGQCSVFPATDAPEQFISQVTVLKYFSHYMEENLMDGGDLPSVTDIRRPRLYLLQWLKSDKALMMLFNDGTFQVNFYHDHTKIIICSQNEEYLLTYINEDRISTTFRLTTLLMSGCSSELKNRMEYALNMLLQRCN
Method: as §1

L363 cells [5] = system: L363 cells; set-up: method as in Park, J.E., et al. (1); settings: MTS, 48 h treatment, ref Park, J.E., et al. (1), cited from earlier work
Plk3 PBD (PBD3) = molecular target: T4, Plk3 PBD (PBD3) (Homo sapiens, UniProt Q9H4B4); experiment: FP-based inhibition assay, PBD3; assay type: binding; settings: bacterially expressed purified PBD, FITC-ligand 15 nM, PBD at EC85
T4 construct: MBP-PBD3-His (335–646) (pKM3359) and its A612F (pKM7981); His (C); made in house; host or cells: bacteria (E. coli)
T4 sequence (Q9H4B4 335-646): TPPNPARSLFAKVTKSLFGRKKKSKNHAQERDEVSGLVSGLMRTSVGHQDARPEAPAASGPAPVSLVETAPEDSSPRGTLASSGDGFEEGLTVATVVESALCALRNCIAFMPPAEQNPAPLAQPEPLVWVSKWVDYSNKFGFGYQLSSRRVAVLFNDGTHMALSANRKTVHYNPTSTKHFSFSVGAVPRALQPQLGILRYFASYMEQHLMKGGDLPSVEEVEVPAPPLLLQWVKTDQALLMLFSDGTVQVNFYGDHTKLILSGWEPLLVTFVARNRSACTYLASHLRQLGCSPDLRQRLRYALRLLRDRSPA
Method: FP assays were carried out essentially as described previously ([35], [36]). FITC-conjugated ligands (15 nM) were mixed with PBDs at their EC85 concentrations. All the samples were analyzed approximately 30 min after reaction in a 384-well format using the SpectraMax Paradigm multimode microplate detection platform (Molecular Devices). Data were analyzed after carrying out at least three independent experiments using GraphPad Prism software version 8.

[6] = Conversion of Allopole to Allopole-A in buffers ± GSH (LC-MS); assay type: physicochemical; settings: 100 µM Allopole, room temperature, 1 h
Method: High-performance liquid chromatography (HPLC)/high-resolution mass spectrometry was used to determine the products derived from investigational drugs incubated under various conditions by measuring their exact masses. Thereafter, 20 μL aliquots of several drug preparations in either DMSO or aqueous reaction solutions were diluted 2:1 in ethanol, followed by centrifugation at 15,000 × g for 5 min. The supernatant was then injected on a Thermo Vanquish liquid chromatograph coupled to a Thermo Q Exactive Orbitrap mass spectrometer (Thermo Fisher Scientific). The conditions for the analysis are listed as follows.
The analytes were identified using the Dmass between the predicted and measured exact monoisotopic mass for the protonated molecular ions applied to the empirical formula algorithm in the Qual Browser application of the Xcalibur software (Themo Scientific). Selected ions from the base peak chromatogram were extracted for integration of peak areas. The relative amounts of each analyte to the sum total were calculated to estimate conversion of and prodrug under the specific conditions to breakdown products.
Table S2. Conversion of Allopole to Allopole-A under various buffer conditions, room
Buffers* Compounds detected
Allopole-A Allopole-A (-S) Allopole (-Cl) Allopole
* Buffer #1: 20 mM Tris (pH 8.0), 50 mM NaCl, 1 mM EDTA, 1% DMSO
Buffer #2: 1 x PBS (pH 7.4), 1 mM EDTA, 1% DMSO
Buffer #3: 20 mM HEPES (pH 7.0), 50 mM NaCl, 1 mM EDTA, 1% DMSO
Samples were prepared by incubating 100 µM of Allopole in the indicated buffer conditions in the
absence or presence of 5 mM GSH for 1 h at room temperature. Note that in the absence of GSH,

human His-Plk1 = molecular target: T5, human His-Plk1 (Homo sapiens, UniProt P53350); experiment: In vitro Plk1 kinase assay (casein, 32P); assay type: biochemical; settings: casein substrate
T5 construct: His (N); purchased Sino Biological; host or cells: Sf9
Method: Kinase reactions were carried out in two steps. First, Sf9-purified 0.2 µg of human His-Plk1 (Sino Biological) was preincubated in a kinase cocktail [50 mM Tris-Cl (pH 7.5), 10 mM MgCl2, 2 mM dithiothreitol, 2 mM EGTA, and 27 mM p-nitrophenylphosphate] in the presence of either Allopole-A or p-13mer PBIP peptide for 20 min at 25 °C. The samples were then added with 1 µg of dephosphorylated casein (Sigma) and 1.25 µM of ATP (1.25 µCi of [γ^32P] ATP, 1Ci = 37 GBq) and reacted for additional 30 min at 30 °C. The reactions were terminated by the addition of 5× Laemmli SDS sample buffer, separated by 10% SDS-PAGE, and analyzed by autoradiography. To quantify the γ^32P signals, appropriate bands were excised from dried SDS-PAGE gels and analyzed by a liquid scintillation counter (Beckman model LS 6500).

[7] = Buffer #1 (20 mM Tris pH 8.0), no GSH
[8] = Buffer #2 (1 x PBS pH 7.4), no GSH
[9] = Buffer #3 (20 mM HEPES pH 7.0), no GSH

T1 sequence (P53350 whole entry): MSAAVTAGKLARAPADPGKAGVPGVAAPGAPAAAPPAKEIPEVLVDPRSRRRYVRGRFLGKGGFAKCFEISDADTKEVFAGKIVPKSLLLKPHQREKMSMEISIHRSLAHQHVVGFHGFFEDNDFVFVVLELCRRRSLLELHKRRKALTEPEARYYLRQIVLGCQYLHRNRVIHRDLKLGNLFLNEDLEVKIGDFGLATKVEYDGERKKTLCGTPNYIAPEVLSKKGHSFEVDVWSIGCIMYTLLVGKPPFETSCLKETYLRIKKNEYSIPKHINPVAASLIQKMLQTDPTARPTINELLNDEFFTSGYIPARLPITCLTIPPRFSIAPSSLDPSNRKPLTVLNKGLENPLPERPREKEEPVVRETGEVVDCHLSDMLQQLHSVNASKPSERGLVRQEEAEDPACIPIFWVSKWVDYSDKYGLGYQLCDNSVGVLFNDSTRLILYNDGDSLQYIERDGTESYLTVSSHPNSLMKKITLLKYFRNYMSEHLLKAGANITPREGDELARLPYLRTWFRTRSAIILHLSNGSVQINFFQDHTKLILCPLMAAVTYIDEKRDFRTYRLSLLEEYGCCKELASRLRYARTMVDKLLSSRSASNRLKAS
T2 sequence (P53350 345-603): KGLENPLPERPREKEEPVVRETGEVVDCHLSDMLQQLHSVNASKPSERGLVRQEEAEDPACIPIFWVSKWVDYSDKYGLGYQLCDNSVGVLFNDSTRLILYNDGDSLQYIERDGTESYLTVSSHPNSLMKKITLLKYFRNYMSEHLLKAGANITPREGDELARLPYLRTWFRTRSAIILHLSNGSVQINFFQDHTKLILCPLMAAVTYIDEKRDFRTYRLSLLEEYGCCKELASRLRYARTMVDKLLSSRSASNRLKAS
T5 sequence (P53350 whole entry): as the sequence (P53350 whole entry) above

CCCn1c(=O)c2sccc2n2c(Sc3c([N+](=O)[O-])ncn3C)nnc12 [compound 12]
IC50 (full-length Plk1 [1]): > 50 µM | Solubility (in words) [2]: moderately; also recorded: moderate | GI50 (L363 cells [3]): 8.4 ± 0.74 µM

CCCn1c(=O)c2oc3cccc(F)c3c2n2c(Sc3c([N+](=O)[O-])ncn3C)nnc12 [compound 10]
IC50 (full-length Plk1 [1]): > 50 µM | GI50 (L363 cells [3]): 7.53 ± 0.43 µM

CCCn1c(=O)c2sc(C)cc2n2c(=S)[nH]nc12 [compound 3]
Solubility (in words) [2]: lower-than-acceptable solubility | IC50 (Plk1 PBD (PBD1)): 0.0102 µM | IC50 (full-length Plk1 [4]): 2.15 µM | PBD2 IC50 ± SD (Plk2 PBD (PBD2)): N. S. | Cell efficacy (GI50) Mean ± SD (L363 cells [5]): failed to induce any significant antiproliferation effect; also recorded: N. S | PBD3 IC50 ± SD (Plk3 PBD (PBD3)): N. S.

CCCn1c(=O)c2sc(Cl)cc2n2c(Sc3c([N+](=O)[O-])ncn3C)nnc12 [compound 14]
IC50 (full-length Plk1 [1]): > 50 µM | GI50 (L363 cells [3]): 6.04 ± 0.17 µM

CCCn1c(=O)c2sc(C(C)(C)C)cc2n2c(Sc3c([N+](=O)[O-])ncn3C)nnc12 [compound 16]
IC50 (full-length Plk1 [1]): > 50 µM | Solubility (in words) [2]: moderately; also recorded: moderate | GI50 (L363 cells [3]): 4.19 ± 0.15 µM

Cn1cnc([N+](=O)[O-])c1Sc1nnc2n(CC3CC3)c(=O)c3sccc3n12 [Allopole (-Cl)]
Compounds detected [6, 7]: 0.0 µmol/L | Compounds detected, % of total [6, 7]: 0.0% | Compounds detected, pk area [6, 7]: 4.85E+04 | Compounds detected ([6]; Buffer #1 + 5 mM GSH): 0.5 µmol/L | Compounds detected, % of total ([6]; Buffer #1 + 5 mM GSH): 0.5% | Compounds detected, pk area ([6]; Buffer #1 + 5 mM GSH): 6.89E+06 | Compounds detected [6, 8]: 0.0 µmol/L | Compounds detected, % of total [6, 8]: 0.0% | Compounds detected, pk area [6, 8]: 2.42E+04 | Compounds detected ([6]; Buffer #2 + 5 mM GSH): 0.3 µmol/L | Compounds detected, % of total ([6]; Buffer #2 + 5 mM GSH): 0.3% | Compounds detected, pk area ([6]; Buffer #2 + 5 mM GSH): 2.57E+06 | Compounds detected [6, 9]: 0.0 µmol/L | Compounds detected, % of total [6, 9]: 0.0% | Compounds detected, pk area [6, 9]: 0.00E+00 | Compounds detected ([6]; Buffer #3 + 5 mM GSH): 0.4 µmol/L | Compounds detected, % of total ([6]; Buffer #3 + 5 mM GSH): 0.4% | Compounds detected, pk area ([6]; Buffer #3 + 5 mM GSH): 1.11E+06

CCCn1c(=O)c2oc3ccccc3c2n2c(Sc3c([N+](=O)[O-])ncn3C)nnc12 [compound 8]
IC50 (full-length Plk1 [1]): > 50 µM | GI50 (L363 cells [3]): 8.31 ± 0.56 µM

CCCn1c(=O)c2sc3ccccc3c2n2c(Sc3c([N+](=O)[O-])ncn3C)nnc12 [compound 18]
IC50 (full-length Plk1 [1]): > 50 µM | GI50 (L363 cells [3]): 7.05 ± 0.27 µM

CETFDPPLHSpTAI (CETFDPPLHS[pT]AI) [p-13mer, phospho-13mer ligand derived from the PBIP1 p-T78 motif, reference compound]
Effect on His-Plk1 kinase activity in vitro (in words) (human His-Plk1): increased it

CCCn1c(=O)c2sc(C)cc2n2c(Sc3c([N+](=O)[O-])ncn3C)nnc12 [compound 4]
Solubility (in words) [2]: lower-than-acceptable solubility; also recorded: low solubility | IC50 (full-length Plk1 [4]): > 50 µM | GI50 (L363 cells [5]; read-out: Cell efficacy (GI50) Mean ± SD): 4.88 ± 0.1 µM
